This is an account of results in PMC7248394 (Frontiers in Chemistry, 2020).

The target of data set [1] is T1, IN1−288 F185K/C250S (HIV-1 integrase) (Human immunodeficiency virus type 1 group M subtype B, UniProt P12497, C1427S/F1332K).
T1 construct: we first expressed and purified IN1−288 F185K/C250S as previously described; made in house
Briefly: Fluorescence anisotropy binding of fluorescein-labeled IN181−188 peptides to IN. To be noted: for Hill coefficient (n): fluorescence anisotropy, IN titrated into 100 nM fluorescein-labeled peptide, 10°C, ionic strength 1 M (NaCl), fit to Hill equation. As for the experimental part: To test the activity of the cyclic peptide-peptoid hybrids, we first expressed and purified IN1−288 F185K/C250S as previously described (Gabizon et al., [2013]). The double mutant protein was used since it has similar activity as the wild-type but higher solubility (Jenkins et al., [1996]). […] The Hill coefficient for all the cyclic peptides was approximately 4, indicating cooperative binding of the peptides to tetrameric IN.
IN was titrated into a solution of 100 nM fluorescein labeled (Fl) IN181−188 cyclic peptides and into linear IN181−188, which served as a control. Anisotropy measurements were performed generally as described (Friedler et al., [2002]) at 10°C with ionic strength of 1 M (adjusted by NaCl) and the binding curves were fit to the Hill equation (Figure 8, Table 1).
(Polarisation of emitted light reports the rotation of a fluorescent probe.)

In the next data set the test system is trypsin. Briefly: 7 μL of 8 μM trypsin added to peptide in 360 μL of HEPES 20 mM pH = 7.5. Particulars: 37 °C, up to about 30 h.

Entries after “also recorded” stand apart in the source; their conditions may differ. Residues, ends and D or L forms follow the SMILES beside them. *: point of attachment. 5FAM = O=C1OC2(c3ccc(O)cc3Oc3cc(O)ccc32)c2ccc(C(=O)*)cc21

Broadly, the Kd is the free concentration of one partner at which half of the binding sites on the other are occupied at equilibrium, for simple one-to-one binding. A lower Kd goes with tighter binding. On to `CC[C@H](C)[C@@H]1NC(=O)[C@H](Cc2ccccc2)NC(=O)CN(C(=O)[C@H](Cc2c[nH]c3ccccc23)NC(=O)c2ccc3c(c2)C(=O)OC32c3ccc(O)cc3Oc3cc(O)ccc32)CCCn2cc(nn2)CN(CC(N)=O)C(=O)[C@H](CCCCN)NC(=O)[C@H](CCCNC(=N)N)NC(=O)[C@H](CCCCN)NC(=O)[C@H](Cc2ccccc2)NC(=O)[C@H](CC(N)=O)NC(=O)[C@H](Cc2c[nH]cn2)NC1=O` [Fl-C-1], for which, in data set [1], the dissociation constant (Kd) came out at 8.1 ± 0.2 µM and the “Hill coefficient (n)” value is recorded as 3.8 ± 0.4.
For `CC[C@H](C)[C@@H]1NC(=O)[C@H](Cc2ccccc2)NC(=O)CN(C(=O)[C@H](Cc2c[nH]c3ccccc23)NC(=O)c2ccc3c(c2)C(=O)OC32c3ccc(O)cc3Oc3cc(O)ccc32)Cc2cn(nn2)CCCN(CC(N)=O)C(=O)[C@H](CCCCN)NC(=O)[C@H](CCCNC(=N)N)NC(=O)[C@H](CCCCN)NC(=O)[C@H](Cc2ccccc2)NC(=O)[C@H](CC(N)=O)NC(=O)[C@H](Cc2c[nH]cn2)NC1=O` [Fl-C-2], in data set [1], the affinity, expressed as Kd, was 9 ± 0.2 µM and the “Hill coefficient (n)” value is given as 3.8 ± 0.3.
Take `CC[C@H](C)[C@@H]1NC(=O)[C@H](Cc2ccccc2)NC(=O)CN(C(=O)[C@H](Cc2c[nH]c3ccccc23)NC(=O)c2ccc3c(c2)C(=O)OC32c3ccc(O)cc3Oc3cc(O)ccc32)CCn2cc(nn2)CN(CC(N)=O)C(=O)[C@H](CCCCN)NC(=O)[C@H](CCCNC(=N)N)NC(=O)[C@H](CCCCN)NC(=O)[C@H](Cc2ccccc2)NC(=O)[C@H](CC(N)=O)NC(=O)[C@H](Cc2c[nH]cn2)NC1=O` [Fl-C-3]: in data set [1], the Kd was 7.7 ± 0.5 µM and the “Hill coefficient (n)” value was 2.8 ± 0.5.
Consider `CC[C@H](C)[C@@H]1NC(=O)[C@H](Cc2ccccc2)NC(=O)CN(C(=O)[C@H](Cc2c[nH]c3ccccc23)NC(=O)c2ccc3c(c2)C(=O)OC32c3ccc(O)cc3Oc3cc(O)ccc32)Cc2cn(nn2)CCN(CC(N)=O)C(=O)[C@H](CCCCN)NC(=O)[C@H](CCCNC(=N)N)NC(=O)[C@H](CCCCN)NC(=O)[C@H](Cc2ccccc2)NC(=O)[C@H](CC(N)=O)NC(=O)[C@H](Cc2c[nH]cn2)NC1=O` [Fl-C-4], for which, in data set [1], the Kd amounted to 7 ± 0.2 µM and the “Hill coefficient (n)” value is on record as 2.5 ± 0.2.
As to `CC[C@H](C)[C@H](NC(=O)[C@H](Cc1ccccc1)NC(=O)CNC(=O)[C@H](Cc1c[nH]c2ccccc12)NC(=O)c1ccc2c(c1)C(=O)OC21c2ccc(O)cc2Oc2cc(O)ccc21)C(=O)N[C@@H](Cc1c[nH]cn1)C(=O)N[C@@H](CC(N)=O)C(=O)N[C@@H](Cc1ccccc1)C(=O)N[C@@H](CCCCN)C(=O)N[C@@H](CCCNC(=N)N)C(=O)N[C@@H](CCCCN)C(=O)NCC(N)=O` [Fl-WT IN181−188, reference compound] (5FAM-WGFIHNFKRKG-NH2; N-terminus assumed), in data set [1], the Kd came to 7.6 ± 0.2 µM and the “Hill coefficient (n)” value is listed as 3.6 ± 0.4.
For the compound “H2N-W-G(N-alkyl)-F-I-H-N-F-K-R-K-G(N-alkyl)-NH2, the two N-alkyl groups joined by a triazole bridge (n=3, R=H)”, the fragment found result in the data set on trypsin is “digested C-2 (C-2 + 18 Da, addition of water)”.
For “H2N-W-G(N-propargyl)-F-I-H-N-F-K-R-K-G(N-(CH2)3-N3)-NH2”, in the data set on trypsin, the fragment found entry is on record as “G(N-propargyl)FIHNFKR, major; also recorded: G(N-propargyl)FIHNFK”.
